In brackets after ≈: the same amount, converted by molar mass.
Test system: Mycobacterium tuberculosis
Experiment: Antimycobacterial activity against isoniazid-resistant Mycobacterium tuberculosis by agar dilution method
Assay type: functional

Structure (SMILES)	MIC [µM]
COc1cc2c(cc1OC)C(=O)C(C(=O)c1ccc(Br)cc1)C2 (stereo not drawn)	11.7 (≈ 4.41 µg/mL)
COc1ccc(C(=O)C2Cc3cc(OC)c(OC)cc3C2=O)cc1 (stereo not drawn)	> 6.25
COc1ccc(C(=O)C2Cc3cc(OC)c(OC)cc3C2=O)cc1OC (stereo not drawn)	> 6.25
COc1cc2c(cc1OC)C(=O)C(C(=O)c1ccccc1Cl)C2 (stereo not drawn)	3.72 (≈ 1.23 µg/mL)
COc1cc2c(cc1OC)C(=O)C(C(=O)c1ccc(Cl)cc1)C2 (stereo not drawn)	8.2 (≈ 2.71 µg/mL)
COc1cc2c(cc1OC)C(=O)C(C(=O)c1ccc(N(C)C)cc1)C2 (stereo not drawn)	8.78 (≈ 2.98 µg/mL)
COc1cc2c(cc1OC)C(=O)C(C(=O)c1ccc(C#N)cc1)C2 (stereo not drawn)	> 6.25
COc1cc2c(cc1OC)C(=O)C(C(=O)c1cc(OC)c(OC)c(OC)c1)C2 (stereo not drawn)	> 6.25
COc1cc2c(cc1OC)C(=O)C(C(=O)c1cccc([N+](=O)[O-])c1)C2 (stereo not drawn)	8.72 (≈ 2.98 µg/mL)
COc1cc2c(cc1OC)C(=O)C(C(=O)c1c(Cl)cccc1Cl)C2 (stereo not drawn)	4.96 (≈ 1.81 µg/mL)
COc1cc2c(cc1OC)C(=O)C(C(=O)c1ccccc1)C2 (stereo not drawn)	11.6 (≈ 3.43 µg/mL)
COc1cc2c(cc1OC)C(=O)C(C(=O)c1ccc(F)cc1)C2 (stereo not drawn)	0.1 (≈ 0.0314 µg/mL)
NNC(=O)c1ccncc1 [ISONIAZID]	11.6 (≈ 1.59 µg/mL)

Source: ChEMBL document CHEMBL1153711, “Synthesis and antimycobacterial evaluation of novel 5,6-dimethoxy-1-oxo-2,5-dihydro-1H-2-indenyl-5,4-substituted phenyl methanone analogues” (Bioorg Med Chem Lett, 2009)
